# Measurements reported in patent US20060194815A1, “Methods and compositions for modulating serum cortisol levels” (priority 2003, published 2006).
# Test system: Y1 mouse adrenal tumor cells
# Assay: dbcAMP-induced 20á-hydroxyprogesterone synthesis in Y1 cells (RIA)
# Format: cell-based
# Description: Culture media were then changed and cells were stimulated with 1 mM dbcAMP and the treatment for 24 to 48 hours. […] The synthesis of 20-OH progesterone and progesterone in Y1 and MA-10 cell media respectively were measured by RIA (Brown et al., 1992). H295R human adrenal tumor cells were seeded in 48-well plates at 10^5 cells/well and incubated for 24 hours. […] At the end of the incubation time period, cells were treated with 1 mM dbcAMP for 48 hours. Cortisol levels in the media were determined by radioimmunoassay as previously described (Amri et al., 1996).
structure (smiles),measurement,setting,value
"CC1CN(C(=O)C(Cc2c[nH]c3ccccc23)NC(=O)c2ccc([N+](=O)[O-])cc2)CCN1C(=O)C1CC1 (stereo not drawn) [SP010, N-[2-(4-cyclopropanecarbonyl-3-methyl-piperazin-1-yl)-1-(1H-indol-3-yl-methyl)-2-oxo-ethyl]-4-nitro-benzamide]",efficacy on Y1 adrenocortical cells across concentrations,"1, 10 and 100 iM",maintained the same efficacy
same,dbcAMP-induced 20á-hydroxyprogesterone production,"Y1 cells, 1 mM dbcAMP, increasing concentrations",decreased in a dose-dependent manner
same,potency compared with procaine on cAMP-corticosteroid formation,even at a concentration as low as 1 μM,as potent as procaine
